Data taken from ChEMBL document CHEMBL4507299, “Data for DCP probe PF-04554878” (2021).

Experiments:
[1] = target: Mitogen-activated protein kinase 14 (Homo sapiens) (UniProt Q16539); assay: SAPK2A/p38 Invitrogen kinase activity assay; details: Compound concentration 1.0 uM
[2] = target: T1, Serine/threonine-protein kinase Sgk1 (Homo sapiens) (UniProt O00141); assay: SGK Invitrogen kinase activity assay; details: Compound concentration 1.0 uM
T1 sequence (whole entry): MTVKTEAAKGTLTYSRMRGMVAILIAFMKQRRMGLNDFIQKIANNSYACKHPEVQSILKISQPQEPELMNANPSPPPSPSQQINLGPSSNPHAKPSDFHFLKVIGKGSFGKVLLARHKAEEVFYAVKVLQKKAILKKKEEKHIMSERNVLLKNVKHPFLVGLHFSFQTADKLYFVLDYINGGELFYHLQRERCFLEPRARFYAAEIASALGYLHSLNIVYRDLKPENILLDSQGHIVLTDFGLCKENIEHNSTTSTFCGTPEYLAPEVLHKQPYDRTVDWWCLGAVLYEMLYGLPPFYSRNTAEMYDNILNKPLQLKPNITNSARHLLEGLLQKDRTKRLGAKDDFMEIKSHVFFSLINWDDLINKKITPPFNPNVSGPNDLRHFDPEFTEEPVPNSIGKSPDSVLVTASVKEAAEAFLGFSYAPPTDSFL

Adenosine receptor A3 = Adenosine receptor A3 (Homo sapiens, UniProt P0DMS8); assay: Cerep profiling assay (ADORA3); set-up: compound concentration 10 uM
[3] = target: Serine/threonine-protein kinase PAK 4 (Homo sapiens) (UniProt O96013); assay: PAK4 Invitrogen kinase activity assay; details: Compound concentration 1.0 uM
[4] = target: T2, Inhibitor of nuclear factor kappa-B kinase subunit beta (Homo sapiens) (UniProt O14920); assay: IKKβ Invitrogen kinase activity assay; details: Compound concentration 1.0 uM
T2 sequence (whole entry): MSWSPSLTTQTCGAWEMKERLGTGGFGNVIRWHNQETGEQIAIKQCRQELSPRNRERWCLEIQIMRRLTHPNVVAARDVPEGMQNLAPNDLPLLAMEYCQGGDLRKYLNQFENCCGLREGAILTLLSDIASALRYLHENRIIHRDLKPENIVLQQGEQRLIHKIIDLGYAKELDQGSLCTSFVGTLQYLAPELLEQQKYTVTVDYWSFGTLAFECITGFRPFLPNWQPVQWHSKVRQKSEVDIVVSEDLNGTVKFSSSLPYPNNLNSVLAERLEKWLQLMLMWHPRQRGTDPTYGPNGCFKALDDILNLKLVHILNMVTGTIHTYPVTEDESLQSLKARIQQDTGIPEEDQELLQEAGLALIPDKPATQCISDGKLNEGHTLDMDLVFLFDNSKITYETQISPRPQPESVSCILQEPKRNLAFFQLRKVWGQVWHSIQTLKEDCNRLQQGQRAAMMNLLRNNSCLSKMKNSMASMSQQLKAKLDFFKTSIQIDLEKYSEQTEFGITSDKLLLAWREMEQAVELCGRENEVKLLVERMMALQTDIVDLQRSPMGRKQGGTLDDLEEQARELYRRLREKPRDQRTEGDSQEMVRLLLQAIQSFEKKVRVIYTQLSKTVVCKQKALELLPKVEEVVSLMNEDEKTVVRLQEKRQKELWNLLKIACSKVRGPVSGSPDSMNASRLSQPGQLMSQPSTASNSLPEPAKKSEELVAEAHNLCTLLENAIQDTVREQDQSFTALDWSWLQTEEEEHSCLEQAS

[5] = target: 5-hydroxytryptamine receptor 1E (Homo sapiens) (UniProt P28566); details: Compound concentration 10.0 uM
[6] = target: Dual specificity protein kinase CLK1 (Homo sapiens, UniProt P49759); assay: CLK1 Invitrogen kinase activity assay
[7] = target: T3, Serine/threonine-protein kinase 3 (Homo sapiens) (UniProt Q13188); assay: MST2 Invitrogen kinase activity assay; details: Compound concentration 1.0 uM
T3 sequence (whole entry): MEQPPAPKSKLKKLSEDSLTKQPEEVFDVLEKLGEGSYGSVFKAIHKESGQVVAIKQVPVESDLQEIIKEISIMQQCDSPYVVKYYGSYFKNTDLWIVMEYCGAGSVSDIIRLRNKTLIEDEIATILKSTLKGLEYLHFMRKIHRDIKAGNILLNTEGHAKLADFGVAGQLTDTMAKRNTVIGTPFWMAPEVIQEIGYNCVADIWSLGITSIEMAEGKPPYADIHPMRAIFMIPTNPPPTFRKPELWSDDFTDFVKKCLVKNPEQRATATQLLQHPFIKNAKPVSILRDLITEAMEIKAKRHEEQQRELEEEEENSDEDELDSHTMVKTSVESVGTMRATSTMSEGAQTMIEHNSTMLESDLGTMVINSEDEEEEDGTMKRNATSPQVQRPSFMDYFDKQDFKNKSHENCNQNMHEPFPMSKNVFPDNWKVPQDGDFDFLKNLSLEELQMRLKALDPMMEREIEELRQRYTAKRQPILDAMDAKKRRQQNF

[8] = target: 3-phosphoinositide-dependent protein kinase 1 (Homo sapiens) (UniProt O15530); assay: PDK1 Invitrogen kinase activity assay; details: Compound concentration 1.0 uM
[9] = target: Tyrosine-protein kinase Lck (Homo sapiens) (UniProt P06239); assay: LCK Invitrogen kinase activity assay; details: Compound concentration 1.0 uM
[10] = target: Epidermal growth factor receptor (Homo sapiens) (UniProt P00533); assay: EGFR Invitrogen kinase activity assay; details: Compound concentration 1.0 uM
[11] = target: Sodium-dependent dopamine transporter (Homo sapiens) (UniProt Q01959); details: Compound concentration 10.0 uM
[12] = target: Casein kinase I isoform delta (Homo sapiens) (UniProt P48730); assay: CKLdelta Invitrogen kinase activity assay; details: Compound concentration 1.0 uM
Adenosine receptor A2a = Adenosine receptor A2a (Homo sapiens, UniProt P29274); assay: Cerep profiling assay (ADORA2A); set-up: compound concentration 10 uM
D(1A) dopamine receptor = D(1A) dopamine receptor (Homo sapiens, UniProt P21728); details: Compound concentration 10.0 uM
[13] = target: 5-hydroxytryptamine receptor 1D (Homo sapiens) (UniProt P28221); details: Compound concentration 10.0 uM
[14] = target: Muscarinic acetylcholine receptor M4 (Homo sapiens) (UniProt P08173); details: Compound concentration 10.0 uM
Chain of Muscarinic acetylcholine receptor M4 (Homo sapiens) (P08173 whole entry): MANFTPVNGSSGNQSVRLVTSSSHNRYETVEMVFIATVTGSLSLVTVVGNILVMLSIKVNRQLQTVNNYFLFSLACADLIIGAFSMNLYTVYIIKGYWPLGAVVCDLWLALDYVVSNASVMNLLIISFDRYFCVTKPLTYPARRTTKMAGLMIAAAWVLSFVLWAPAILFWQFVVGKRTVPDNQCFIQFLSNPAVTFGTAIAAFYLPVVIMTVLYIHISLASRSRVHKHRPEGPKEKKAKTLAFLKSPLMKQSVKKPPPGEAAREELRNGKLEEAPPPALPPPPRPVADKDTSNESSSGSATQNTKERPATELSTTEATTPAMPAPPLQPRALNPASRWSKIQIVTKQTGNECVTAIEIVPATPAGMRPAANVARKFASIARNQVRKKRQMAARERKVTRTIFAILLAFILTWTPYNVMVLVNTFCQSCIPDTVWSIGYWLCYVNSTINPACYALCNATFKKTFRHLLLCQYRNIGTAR

Chain of Adenosine receptor A2a (P29274 whole entry): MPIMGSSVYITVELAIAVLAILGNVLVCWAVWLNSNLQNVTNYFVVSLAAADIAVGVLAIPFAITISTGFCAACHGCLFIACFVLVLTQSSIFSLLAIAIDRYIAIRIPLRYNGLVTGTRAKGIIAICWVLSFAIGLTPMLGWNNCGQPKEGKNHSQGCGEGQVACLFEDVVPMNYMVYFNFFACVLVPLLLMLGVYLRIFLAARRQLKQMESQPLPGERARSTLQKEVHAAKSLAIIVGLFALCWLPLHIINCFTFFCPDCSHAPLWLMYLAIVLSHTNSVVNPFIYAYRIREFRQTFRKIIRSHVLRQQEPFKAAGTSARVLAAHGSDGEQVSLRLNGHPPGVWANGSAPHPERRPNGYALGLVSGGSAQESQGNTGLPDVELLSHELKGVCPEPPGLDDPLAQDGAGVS
Chain of Tyrosine-protein kinase Lck (Homo sapiens) (P06239 2-509 limits assumed): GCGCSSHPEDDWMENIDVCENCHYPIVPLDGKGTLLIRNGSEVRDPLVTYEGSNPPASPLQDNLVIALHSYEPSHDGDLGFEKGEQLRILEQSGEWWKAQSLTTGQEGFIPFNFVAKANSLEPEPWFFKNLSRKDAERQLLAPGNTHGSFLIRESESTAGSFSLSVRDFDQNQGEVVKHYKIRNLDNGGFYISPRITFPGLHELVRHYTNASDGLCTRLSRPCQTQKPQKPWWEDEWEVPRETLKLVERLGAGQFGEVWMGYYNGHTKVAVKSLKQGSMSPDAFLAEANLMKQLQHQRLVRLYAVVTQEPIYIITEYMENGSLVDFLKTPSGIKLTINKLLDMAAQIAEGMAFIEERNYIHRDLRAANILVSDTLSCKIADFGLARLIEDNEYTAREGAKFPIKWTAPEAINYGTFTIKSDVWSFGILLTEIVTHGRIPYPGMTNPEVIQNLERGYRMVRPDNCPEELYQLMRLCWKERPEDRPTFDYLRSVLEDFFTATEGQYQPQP
Chain of Epidermal growth factor receptor (Homo sapiens) (P00533 whole entry): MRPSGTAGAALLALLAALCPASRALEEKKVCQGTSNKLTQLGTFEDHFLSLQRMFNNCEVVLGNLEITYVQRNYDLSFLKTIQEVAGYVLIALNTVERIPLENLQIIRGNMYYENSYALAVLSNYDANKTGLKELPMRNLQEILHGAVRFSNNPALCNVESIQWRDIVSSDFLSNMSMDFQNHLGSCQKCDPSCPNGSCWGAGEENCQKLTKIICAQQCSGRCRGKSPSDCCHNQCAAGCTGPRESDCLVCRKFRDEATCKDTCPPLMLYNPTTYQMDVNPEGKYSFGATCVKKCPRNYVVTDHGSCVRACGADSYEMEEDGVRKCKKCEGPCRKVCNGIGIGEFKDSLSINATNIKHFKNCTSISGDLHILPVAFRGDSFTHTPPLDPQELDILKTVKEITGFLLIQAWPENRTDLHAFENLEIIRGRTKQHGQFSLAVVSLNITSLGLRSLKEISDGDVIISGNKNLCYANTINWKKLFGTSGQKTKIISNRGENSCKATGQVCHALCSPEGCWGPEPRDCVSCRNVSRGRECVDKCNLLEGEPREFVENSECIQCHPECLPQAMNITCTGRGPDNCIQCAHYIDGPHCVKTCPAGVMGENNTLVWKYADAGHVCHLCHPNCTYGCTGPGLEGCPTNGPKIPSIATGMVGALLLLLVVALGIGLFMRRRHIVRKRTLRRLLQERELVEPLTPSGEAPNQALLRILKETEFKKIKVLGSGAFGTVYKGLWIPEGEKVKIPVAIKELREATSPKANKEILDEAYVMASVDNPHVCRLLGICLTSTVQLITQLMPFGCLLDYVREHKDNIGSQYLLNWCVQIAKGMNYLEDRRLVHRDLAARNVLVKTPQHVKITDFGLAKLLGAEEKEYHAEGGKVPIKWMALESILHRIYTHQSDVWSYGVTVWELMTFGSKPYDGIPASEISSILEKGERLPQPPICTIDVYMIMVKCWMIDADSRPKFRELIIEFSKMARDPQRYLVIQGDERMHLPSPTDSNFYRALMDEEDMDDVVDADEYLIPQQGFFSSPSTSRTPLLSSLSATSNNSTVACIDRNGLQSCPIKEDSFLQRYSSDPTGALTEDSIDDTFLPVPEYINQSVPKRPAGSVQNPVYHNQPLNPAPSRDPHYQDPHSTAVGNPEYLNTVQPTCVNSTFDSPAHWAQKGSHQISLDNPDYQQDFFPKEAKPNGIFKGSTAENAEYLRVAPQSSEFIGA
Chain of 5-hydroxytryptamine receptor 1D (Homo sapiens) (P28221 whole entry): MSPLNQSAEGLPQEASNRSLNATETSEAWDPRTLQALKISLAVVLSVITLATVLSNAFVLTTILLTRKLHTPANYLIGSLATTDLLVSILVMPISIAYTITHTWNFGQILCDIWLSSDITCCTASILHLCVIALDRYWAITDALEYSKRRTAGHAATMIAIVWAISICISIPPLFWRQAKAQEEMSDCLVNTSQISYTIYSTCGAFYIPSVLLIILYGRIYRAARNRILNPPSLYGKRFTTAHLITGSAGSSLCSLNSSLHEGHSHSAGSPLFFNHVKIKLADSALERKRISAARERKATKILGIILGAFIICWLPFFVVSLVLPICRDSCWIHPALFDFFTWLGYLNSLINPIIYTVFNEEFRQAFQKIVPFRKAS
Chain of Casein kinase I isoform delta (Homo sapiens) (P48730 whole entry, looked up, canonical isoform): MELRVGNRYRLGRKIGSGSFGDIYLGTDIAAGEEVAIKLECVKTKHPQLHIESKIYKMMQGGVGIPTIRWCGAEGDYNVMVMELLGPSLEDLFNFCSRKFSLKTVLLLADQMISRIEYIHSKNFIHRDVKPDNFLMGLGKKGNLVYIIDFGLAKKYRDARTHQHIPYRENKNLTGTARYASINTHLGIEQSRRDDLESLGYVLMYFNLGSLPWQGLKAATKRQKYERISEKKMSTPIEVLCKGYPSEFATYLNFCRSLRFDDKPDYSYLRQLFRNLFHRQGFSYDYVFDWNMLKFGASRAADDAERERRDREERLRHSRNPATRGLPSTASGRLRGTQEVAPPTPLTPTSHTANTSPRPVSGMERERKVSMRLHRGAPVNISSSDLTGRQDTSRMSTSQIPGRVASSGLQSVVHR
Chain of 5-hydroxytryptamine receptor 1E (Homo sapiens) (P28566 whole entry): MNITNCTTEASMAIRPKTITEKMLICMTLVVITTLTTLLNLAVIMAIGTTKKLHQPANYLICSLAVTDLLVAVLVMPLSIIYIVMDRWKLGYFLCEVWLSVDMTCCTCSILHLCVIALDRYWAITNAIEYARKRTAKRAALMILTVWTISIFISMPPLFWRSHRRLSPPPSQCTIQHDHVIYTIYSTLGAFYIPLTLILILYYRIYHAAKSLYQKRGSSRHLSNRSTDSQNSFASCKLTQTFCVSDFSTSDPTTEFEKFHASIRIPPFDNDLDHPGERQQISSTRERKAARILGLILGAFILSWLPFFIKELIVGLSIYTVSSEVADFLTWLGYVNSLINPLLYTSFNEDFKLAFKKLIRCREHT
Chain of Adenosine receptor A3 (P0DMS8 whole entry): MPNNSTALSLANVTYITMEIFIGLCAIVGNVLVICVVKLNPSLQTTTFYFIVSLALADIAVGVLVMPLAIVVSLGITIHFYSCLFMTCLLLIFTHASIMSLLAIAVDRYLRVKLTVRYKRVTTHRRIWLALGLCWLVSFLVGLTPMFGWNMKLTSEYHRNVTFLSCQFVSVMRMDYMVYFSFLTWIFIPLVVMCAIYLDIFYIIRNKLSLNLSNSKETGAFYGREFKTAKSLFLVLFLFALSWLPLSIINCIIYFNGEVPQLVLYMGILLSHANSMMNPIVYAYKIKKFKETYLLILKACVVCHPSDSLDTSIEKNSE
Chain of Sodium-dependent dopamine transporter (Homo sapiens) (Q01959 whole entry, canonical isoform): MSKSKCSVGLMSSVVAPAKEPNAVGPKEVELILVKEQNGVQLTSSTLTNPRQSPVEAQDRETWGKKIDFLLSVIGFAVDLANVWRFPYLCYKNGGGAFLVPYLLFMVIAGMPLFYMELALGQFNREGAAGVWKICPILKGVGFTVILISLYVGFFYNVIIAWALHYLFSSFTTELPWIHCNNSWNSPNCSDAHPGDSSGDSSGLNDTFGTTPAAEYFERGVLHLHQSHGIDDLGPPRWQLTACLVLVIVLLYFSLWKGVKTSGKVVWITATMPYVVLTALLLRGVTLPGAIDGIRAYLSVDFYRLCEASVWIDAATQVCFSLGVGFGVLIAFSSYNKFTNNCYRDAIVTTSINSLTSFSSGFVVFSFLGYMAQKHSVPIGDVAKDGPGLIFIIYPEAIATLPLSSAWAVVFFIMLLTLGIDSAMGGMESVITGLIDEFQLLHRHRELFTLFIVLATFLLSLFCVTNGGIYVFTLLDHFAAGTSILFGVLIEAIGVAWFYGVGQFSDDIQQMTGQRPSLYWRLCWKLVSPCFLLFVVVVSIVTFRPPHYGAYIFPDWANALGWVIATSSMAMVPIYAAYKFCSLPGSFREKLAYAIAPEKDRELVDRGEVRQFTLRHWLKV

Row | SMILES | inhibition [1] [%] | inhibition [2] [%] | Ki (Adenosine receptor A3) [nM] | inhibition [3] [%] | inhibition [4] [%] | inhibition [5] [%] | IC50 [6] [nM] | inhibition ([6]; Compound concentration 1.0 uM) [%] | inhibition [7] [%] | inhibition [8] [%] | inhibition [9] [%] | inhibition [10] [%] | inhibition [11] [%] | inhibition [12] [%] | Ki (Adenosine receptor A2a) | inhibition (D(1A) dopamine receptor) [%] | inhibition [13] [%] | inhibition [14] [%]
1 | CNC(=O)c1ccc(Nc2ncc(C(F)(F)F)c(NCc3nccnc3N(C)S(C)(=O)=O)n2)cc1 [DEFACTINIB] | 1 | 30 | 27 | 69 | 4 | 18.2 | 250 | 99 | 60 | 25 | 39 | 13 | -6.06 | 27 | 370 nM (not active) |  |  | 
2 | CN(c1ccnc(CNc2nc(Nc3ccc4c(c3)CC(=O)N4)ncc2C(F)(F)F)n1)S(C)(=O)=O [PF-00911705] |  |  |  |  |  |  |  |  |  |  |  |  |  |  |  | 0.76 | 0.19 | 8.94
